Laboratory results published in US11357782B2, “Treprostinil administration by inhalation” (priority 2006, dated 2022).
Entries after “also recorded” stand apart in the source; their conditions may differ.

How the values were obtained:
[1] = tested on: patients with pre-existing gas exchange problems; assay: Ventilation-perfusion matching by multiple inert gas elimination technique (MIGET)
Description: The impact of SMI-TRE on ventilation-perfusion matching was assessed in five patients (30 μg TRE, n=2; 45 μg TRE, n=1; 60 μg TRE, n=2) with pre-existing gas exchange problems by use of the multiple inert gas elimination technique (MIGET), see e.g. Wagner PD, Saltzman HA, West JB. Measurement of continuous distributions of ventilation-perfusion ratios: theory. J Appl Physiol. 1974; 36:588-99; Ghofrani HA, Wiedemann R, Rose F, Schermuly RT, Olschewski H, Weissmann N et al. Sildenafil for treatment of lung fibrosis and pulmonary hypertension: a randomised controlled trial. Lancet. 2002; 360:895-900, both incorporated herein in their entirety.
The inhalation of a highly concentrated aerosol can be in theory prone to disturbances of gas exchange because the deposition of even small amounts of aerosol may deliver high doses locally and thereby antagonize the hypoxic pulmonary vasoconstriction in poorly ventilated areas. This would then lead to increased shunt flow or increase of low ventilation/perfusion (V/Q) areas. This question was addressed in five patients with the multiple inert gas elimination technique (MIGET), the gold-standard for intrapulmonary V/Q ratio determination. The MIGET patients were selected for pre-existing gas exchange limitations. […] Etiologies were iPAH (n=1), CTEPH (n=3), pulmonary fibrosis (n=1).

[2] = tested on: patients with moderate to severe precapillary pulmonary hypertension; assay: Study i) randomized crossover study of inhaled treprostinil vs inhaled iloprost, right heart catheter; type: in vivo, human; settings: for area under the curve (AUC) of PVR decrease: mean±95% confidence interval
Description: All inhalations were performed with the […]® ultrasonic nebulizer ([…], Germany). Study i) was a randomized, open-label, single-blind crossover study. […] Patient characteristics and hemodynamic as well as gas exchange parameters are outlined in Table 3. Each patient inhaled both iloprost and treprostinil on the same day during right heart catheter investigation; the drugs were administered consecutively with a one hour interval between the drug applications. One half of the study patients initially inhaled treprostinil and then inhaled iloprost (n=22), while the other half initially inhaled iloprost and then inhaled treprostinil (n=22). Patients were randomized to one of the two groups and blinded as to the study drugs. Drug effects were monitored for 60 minutes after each inhalation.

[3] = tested on: patients with severe pulmonary hypertension; assay: Study ii) placebo controlled dose escalation study of inhaled treprostinil, hemodynamics and tolerability; settings: for maximal decrease of PVR to: 6 min inhalation
Description: Study ii) was a randomized, open-label, single blind, placebo controlled study. […] A total number of 31 patients inhaled either placebo or treprostinil; each patient received one inhalation. […] Inhalation time was 6 minutes in all groups.

[4] = metacresol-containing TRE solution

CCCCC[C@H](O)CC[C@@H]1[C@H]2Cc3cccc(OCC(=O)[O-])c3C[C@H]2C[C@H]1O.[Na+] [TRE]
shunt flow ([1]; 60 minutes after SMI-TRE, mean±95% confidence interval, n=5): 8.3±3.4%
low V/Q areas or shunt fraction ([1]; after inhalation of SMI-TRE, n=5): No significant increase
maximal relative reduction of SaO2 ([1]; five MIGET patients, compared to baseline values): −3.8±1.5%
area under the curve (AUC) of PVR decrease ([2]; 7.5 μg inhaled in 6 minutes, start of inhalation until 60 min): −12.6±7.0%
area under the curve (AUC) of PVR decrease ([2]; 15 μg inhaled in 6 minutes, until 60 min): −13.3±3.2%
area under the curve (AUC) of PVR decrease ([2]; 15 TRE inhaled in 3 minutes, until 60 min): −13.6±4.3%
PVR values after 60 min ([2]; 60 min after inhalation): had not yet returned to baseline
gas exchange ([2]; after inhalation): did not affect gas exchange
systemic arterial pressure (SAP) ([2]; after inhalation): unaffected
side effects (transient flush, headache) ([2]; iloprost 7.5 μg, treprostinil 7.5-15 μg): not observed
maximum effect on PVR ([2]; iloprost vs treprostinil, pooled): comparable
taste [2, 4]: Bad taste was reported by most of the patients
time to maximum effect on PVR after inhalation ([2]; pooled n=44, mean±SEM, p<0.0001): 18 ± 2 min
cardiac output increased to a maximum of ([3]; 30 μg): 106.8±3.2%
side effects ([3]; 30 μg TRE, n=1 each): flushing; also recorded: mild transient bronchoconstriction
duration of hemodynamic changes ([3]; 30 μg dose group, 3 hour observation period): had just returned to baseline within this period
maximal decrease of PVR to ([3]; 30 μg, n=8): 76.5±4.7 % of baseline values
cardiac output increased to a maximum of ([3]; 60 μg): 122.9±4.3%
side effects ([3]; 60 μg TRE, n=3): mild transient cough
duration of pulmonary vasodilation ([3]; 60 μg and 90 μg (and 120 μg) TRE doses, surpassing observation period): > 3 h
maximal decrease of PVR to ([3]; 60 μg, n=6): 73.7±5.8 % of baseline values
cardiac output increased to a maximum of ([3]; 90 μg): 114.3±4.8%
maximal decrease of PVR to ([3]; 90 μg, n=6): 73.3±4.3 % of baseline values
cardiac output increased to a maximum of ([3]; 120 μg TRE): 111.3±3.9%
arterial oxygen saturation ([3]; 120 μg TRE, all 3 patients): significantly decreased
side effects ([3]; 120 μg TRE, n=1 each): moderate bronchoconstriction; also recorded: severe headache
maximal decrease of PVR to ([3]; 120 μg, n=3): 65.4±4.1 % of baseline values
gas exchange ([3]; doses up to 90 μg TRE): not affected
effects on systemic arterial pressure ([3]; even at the highest doses): only minor effects
taste of the aerosol [3, 4]: bad taste of the TRE aerosol was reported by most patients
tolerated inhaled dose ([3]; single inhalation): up to 90 μg
